In ChEMBL document CHEMBL5550201, “Discovery of a Highly Potent, Selective and Efficacious USP7 Degrader for the Treatment of Acute Lymphoblastic Leukemia” (J Med Chem, 2024):
pIC50: −log10 of the molar value. Activity calls are given as the source filed them. No cut-off for these calls is given here.

Experiments:
RS4-11 [1] = experiment: Induction of apoptosis in human RS4-11 cells assessed as early apoptotic cells at 1 nM measured after 72 hrs by FITC-annexin-V/PI analysis (reference value: 5.36%); format: functional
RS4-11 [2] = experiment: Antitumor activity against human RS4-11 cells xenografted in NOD/SCID mouse model assessed as tumor growth inhibition at 20 mg/kg, ip daily measured after 18 days relative to control; format: functional; settings: RS4-11, 432 h, time 18 day, read-out: TGI
RS4-11 [3] = experiment: Induction of apoptosis in human RS4-11 cells assessed as necrotic cells at 1 nM measured after 72 hrs by FITC-annexin-V/PI analysis (reference value: 0%); format: functional
RS4-11 [4] = experiment: Induction of apoptosis in human RS4-11 cells assessed as viable cells at 1000 nM measured after 72 hrs by FITC-annexin-V/PI analysis (reference value: 91.41%); format: functional; settings: read-out: Activity
RS4-11 [5] = experiment: Upregulation of p53 protein expression in human RS4-11 cells measured after 12 hrs incubation by Western blot analysis; format: functional, cell-based; settings: dose 10-100 nM
RS4-11 [6] = experiment: Antiproliferative activity against human RS4-11 cells with shp53 assessed as cell viability measured after 7 days by PMS-MTS assay; format: functional, cell-based; settings: RS4-11, 168 h
[7] = Toxicity in NOD/SCID mouse xenografted with human RS4-11 cells assessed as body weight change at 5 to 20 mg/kg, ip daily measured after 18 days relative to control; format: organism-based; settings: in vivo, 432 h, dose 5-20 mg/kg, time 18 day
RS4-11 [8] = experiment: Induction of apoptosis in human RS4-11 cells assessed as late apoptotic cells at 1000 nM measured after 72 hrs by FITC-annexin-V/PI analysis (reference value: 3.23%); format: functional
RS4-11 [9] = experiment: Induction of apoptosis in human RS4-11 cells assessed as early apoptotic cells at 10 nM measured after 72 hrs by FITC-annexin-V/PI analysis (reference value: 5.36%); format: functional
[10] = Toxicity in NOD/SCID mouse xenografted with human RS4-11 cells assessed as signs of toxicity at 5 to 20 mg/kg, ip daily measured after 18 days relative to control; format: organism-based; settings: in vivo, 432 h, dose 5-20 mg/kg, time 18 day
RS4-11 [11] = experiment: Antitumor activity against human RS4-11 cells xenografted in NOD/SCID mouse model assessed as decrease in USP7 level in tumor at 5 to 20 mg/kg, ip daily measured after 18 days relative to control; format: functional, organism-based; settings: dose 5-20 mg/kg, time 18.0 day
RS4-11 [12] = experiment: Induction of cell cycle arrest in human RS4-11 cells assessed as assessed as total apoptotic cells at 1 nM measured after 12 hrs by flow cytometry relative to control; format: functional
[13] = biological target: T1, von Hippel-Lindau disease tumor suppressor/Ubiquitin carboxyl-terminal hydrolase 7 (Homo sapiens, UniProt Q93009+P40337); experiment: PROTACT activity at USP7/VHL in human RS4;11 cells assessed as protein degradation at 10 nM measured after 2 to 4 hrs by Western blot analysis; format: cell-based; settings: time 2-4 hrs
T1 sequence (P40337 whole entry, looked up): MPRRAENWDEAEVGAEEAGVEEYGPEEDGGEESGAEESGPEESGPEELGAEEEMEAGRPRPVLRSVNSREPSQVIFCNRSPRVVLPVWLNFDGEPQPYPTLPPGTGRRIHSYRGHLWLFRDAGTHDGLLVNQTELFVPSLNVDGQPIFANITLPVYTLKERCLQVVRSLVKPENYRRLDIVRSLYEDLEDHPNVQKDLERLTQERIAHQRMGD
T1 sequence (Q93009 whole entry, looked up): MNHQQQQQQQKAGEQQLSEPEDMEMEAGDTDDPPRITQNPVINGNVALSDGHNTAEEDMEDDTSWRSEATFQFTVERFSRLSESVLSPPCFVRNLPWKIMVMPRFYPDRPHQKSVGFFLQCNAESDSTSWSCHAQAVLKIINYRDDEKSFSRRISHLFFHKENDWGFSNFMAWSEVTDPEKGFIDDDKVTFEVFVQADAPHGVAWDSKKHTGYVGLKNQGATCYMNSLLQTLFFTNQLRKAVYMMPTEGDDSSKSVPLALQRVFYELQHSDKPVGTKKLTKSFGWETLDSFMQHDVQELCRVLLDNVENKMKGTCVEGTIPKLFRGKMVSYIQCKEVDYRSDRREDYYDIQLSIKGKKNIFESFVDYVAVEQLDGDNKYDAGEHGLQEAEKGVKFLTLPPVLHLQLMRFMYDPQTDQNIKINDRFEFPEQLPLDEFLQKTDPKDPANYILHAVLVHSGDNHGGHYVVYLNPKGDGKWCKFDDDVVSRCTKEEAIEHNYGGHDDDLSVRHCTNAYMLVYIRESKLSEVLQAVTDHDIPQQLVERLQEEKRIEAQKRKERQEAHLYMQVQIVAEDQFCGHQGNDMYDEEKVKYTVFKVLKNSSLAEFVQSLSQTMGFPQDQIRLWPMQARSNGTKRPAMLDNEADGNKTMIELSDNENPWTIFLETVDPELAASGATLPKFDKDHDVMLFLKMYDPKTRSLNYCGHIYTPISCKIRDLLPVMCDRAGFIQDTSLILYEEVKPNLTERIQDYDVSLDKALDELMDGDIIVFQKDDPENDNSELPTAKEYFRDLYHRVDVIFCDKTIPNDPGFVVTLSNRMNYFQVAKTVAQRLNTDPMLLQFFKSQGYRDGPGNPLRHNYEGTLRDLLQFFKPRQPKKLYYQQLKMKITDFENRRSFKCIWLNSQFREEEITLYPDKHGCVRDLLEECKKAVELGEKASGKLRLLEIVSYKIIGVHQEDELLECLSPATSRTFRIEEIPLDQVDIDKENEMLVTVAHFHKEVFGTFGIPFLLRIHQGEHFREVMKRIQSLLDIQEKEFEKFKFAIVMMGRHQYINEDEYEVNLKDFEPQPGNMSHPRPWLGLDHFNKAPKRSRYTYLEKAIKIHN

[14] = biological target: T1, von Hippel-Lindau disease tumor suppressor/Ubiquitin carboxyl-terminal hydrolase 7; experiment: PROTACT activity at USP7/VHL in human RS4;11 cells assessed as selective USP7 degradation at 100 nM measured after 4 hrs by proteomics analysis; format: cell-based
RS4-11 [15] = experiment: Induction of apoptosis in human RS4-11 cells assessed as viable cells at 1 nM measured after 72 hrs by FITC-annexin-V/PI analysis (reference value: 91.41%); format: functional; settings: read-out: Activity
[16] = biological target: T1, von Hippel-Lindau disease tumor suppressor/Ubiquitin carboxyl-terminal hydrolase 7; experiment: PROTACT activity at USP7/VHL in human RS4;11 cells assessed as protein degradation at 10 nM measured after 6 hrs in presence of (R)-3-(4-(aminomethyl)phenyl)-6-((4-hydroxy-1-(3-phenylbutanoyl)piperidin-4-yl)methyl)-2-methyl-2,6-dihydro-7H-pyrazolo[4,3-d]pyrimidin-7-one by Western blot analysis; format: cell-based
[17] = biological target: T1, von Hippel-Lindau disease tumor suppressor/Ubiquitin carboxyl-terminal hydrolase 7; experiment: PROTACT activity at USP7/VHL in human REH cells assessed as protein degradation at 10 to 100 nM measured after 12 hrs by Western blot analysis; format: cell-based; settings: dose 10-100 nM
RS4-11 [18] = experiment: Induction of apoptosis in human RS4-11 cells assessed as necrotic cells at 1000 nM measured after 72 hrs by FITC-annexin-V/PI analysis (reference value: 0%); format: functional
[19] = biological target: T1, von Hippel-Lindau disease tumor suppressor/Ubiquitin carboxyl-terminal hydrolase 7; experiment: PROTACT activity at USP7/VHL in human RS4;11 cells assessed as protein degradation at 10 nM measured after 6 hrs in presence of proteasome inhibitors PS-341 by Western blot analysis; format: cell-based
[20] = biological target: T1, von Hippel-Lindau disease tumor suppressor/Ubiquitin carboxyl-terminal hydrolase 7; experiment: PROTACT activity at USP7/VHL in human RS4;11 cells assessed as protein degradation at 10 nM measured after 6 hrs in presence of NEDD8-activating enzyme inhibitor […] by Western blot analysis; format: cell-based
RS4-11 [21] = experiment: Antiproliferative activity against human RS4-11 cells with wild type p53 assessed as cell viability measured after 3 days by PMS-MTS assay; format: functional, cell-based; settings: RS4-11, 72 h
[22] = biological target: T1, von Hippel-Lindau disease tumor suppressor/Ubiquitin carboxyl-terminal hydrolase 7; experiment: PROTACT activity at USP7/VHL in human OCI-Ly10 cells assessed as protein degradation at 10 to 100 nM measured after 12 hrs by Western blot analysis; format: cell-based; settings: dose 10-100 nM
RS4-11 [23] = experiment: Induction of apoptosis in human RS4-11 cells assessed as early apoptotic cells at 1000 nM measured after 72 hrs by FITC-annexin-V/PI analysis (reference value: 5.36%); format: functional
[24] = biological target: T1, von Hippel-Lindau disease tumor suppressor/Ubiquitin carboxyl-terminal hydrolase 7; experiment: PROTACT activity at USP7/VHL in human RS4;11 cells assessed as protein degradation at 10 to 100 nM measured after 12 hrs by Western blot analysis; format: cell-based; settings: dose 10-100 nM
RS4-11 [25] = experiment: Induction of apoptosis in human RS4-11 cells assessed as viable cells at 10 nM measured after 72 hrs by FITC-annexin-V/PI analysis (reference value: 91.41%); format: functional; settings: read-out: Activity
RS4-11 [26] = experiment: Induction of apoptosis in human RS4-11 cells assessed as early apoptotic cells at 100 nM measured after 72 hrs by FITC-annexin-V/PI analysis (reference value: 5.36%); format: functional
RS4-11 [27] = experiment: Induction of cell cycle arrest in human RS4-11 cells assessed as assessed as accumulation cells at G1/G0 phase measured after 12 hrs by flow cytometry; format: functional, cell-based; settings: dose 1-1000 nM
RS4-11 [28] = experiment: Induction of apoptosis in human RS4-11 cells assessed as necrotic cells at 10 nM measured after 72 hrs by FITC-annexin-V/PI analysis (reference value: 0%); format: functional
[29] = biological target: T1, von Hippel-Lindau disease tumor suppressor/Ubiquitin carboxyl-terminal hydrolase 7; experiment: PROTACT activity at USP7/VHL in human RS4;11 cells assessed as protein degradation at 100 nM measured after 24 hrs by Western blot analysis relative to control; format: cell-based
REH = experiment: Antiproliferative activity against human REH cells with wild type p53 assessed as cell viability measured after 3 days by PMS-MTS assay; format: functional, cell-based; settings: 72 h
RS4-11 [30] = experiment: Induction of apoptosis in human RS4-11 cells assessed as late apoptotic cells at 10 nM measured after 72 hrs by FITC-annexin-V/PI analysis (reference value: 3.23%); format: functional
RS4-11 [31] = experiment: Induction of apoptosis in human RS4-11 cells assessed as viable cells at 100 nM measured after 72 hrs by FITC-annexin-V/PI analysis (reference value: 91.41%); format: functional; settings: read-out: Activity
RS4-11 [32] = experiment: Upregulation of p21 protein expression in human RS4-11 cells measured after 12 hrs incubation by Western blot analysis; format: functional, cell-based; settings: dose 10-100 nM

## Cc1ncsc1-c1ccc([C@H](C)NC(=O)[C@@H]2C[C@@H](O)CN2C(=O)[C@@H](c2cc(N3CCN(Cc4ccc(-c5c6ncn(CC7(O)CCN(C(=O)C[C@@H](C)c8ccccc8)CC7)c(=O)c6nn5C)cc4)CC3)no2)C(C)C)cc1
RS4-11 [1]
  Activity: 12.45%
RS4-11 [2]
  inhibition in vivo at 20 mg/kg: 78.7%
RS4-11 [3]
  Activity: 0%
RS4-11 [4]
  viability at 1 µM: 55.3%
RS4-11 [5]
  Activity: Dose-Dependent Effect
RS4-11 [6]
  pIC50: < 4.70
[7]
  Activity: Non-Toxic
RS4-11 [8]
  Activity: 24.89%
RS4-11 [9]
  Activity: 17.36%
[10]
  Activity: Non-Toxic
RS4-11 [11]
  Activity: Active
RS4-11 [12]
  Activity: 12.98%
[13]
  Activity: Active
[14]
  Activity: Active
RS4-11 [15]
  viability at 0.001 µM: 74.6%
[16]
  Activity: inactive
[17]
  Activity: Active
RS4-11 [18]
  Activity: 0%
[19]
  Activity: inactive
[20]
  Activity: inactive
RS4-11 [21]
  pIC50: 9.30
[22]
  Activity: Active
RS4-11 [23]
  Activity: 19.81%
[24]
  Activity: Active
RS4-11 [25]
  viability at 0.01 µM: 65.7%
RS4-11 [26]
  Activity: 19.6%
RS4-11 [27]
  Activity: Dose-Dependent Effect
RS4-11 [28]
  Activity: 0.01%
[29]
  Activity: 91.7%
REH
  pIC50: 8.08
RS4-11 [30]
  Activity: 16.98%
RS4-11 [31]
  viability at 0.1 µM: 59.7%
RS4-11 [32]
  Activity: Dose-Dependent Effect
